Measured values as given in US8946201B2, “Methods for inhibiting TGF-β” (Saint Louis University, priority 2007, dated 2015).

Assays:
TβR-I and TβR-II [1] = experiment: 125I-TGF-β1 affinity labeling, CHO-K1 cells; format: cell-based, Chinese hamster; conditions: 1 μM, 37° C. 16 hr, 0.12 untreated
Experimental: (A, B, C, D, E, F) Cells were treated with LDL (50 μg protein/ml), VLDL (5 μg protein/ml), HDL (50 μg protein/ml), lipoprotein (a) (10 μg/ml), fluvastatin (F; 1 μM), lovastatin (L; 1 μM), nystatin (Nys; 25 μg/ml), β-CD (β-CD; 8 mM), cholest-4-en-3-one (3-one; 50 μg/ml) or cholesterol (Chol; 50 μg/ml) alone or combination of two. After 1 hr at 37° C. or 16 hr at 37° C. (for fluvastatin and lovastatin), ^125I-TGF-β1 affinity labeling of cell-surface TGF-β receptors was performed at 0° C. ^125I-TGF-β1 affinity-labeled TβR-I and TβR-II were analyzed by 7.5% SDS-PAGE and autoradiography. The relative intensities of TβR-I and TβR-II were quantified with a PhosphoImager. The ratio of ^125I-TGF-β1 binding to TβR-II and TβR-I were estimated. The numbers above the lane sequence denote the ratio of TβR-II/TβR-I.
After cross-linking, cell lysates were analyzed by 7.5% SDS-PAGE and autoradiography or quantified by a PhosphoImager. For all experiments, cholesterol or cholesterol derivatives were prepared as the stock solution with a concentration of 25 mg/ml in ethanol. The final concentration of ethanol in the medium was 0.2% (by vol.). […]

PAI-1 expression = experiment: TGF-β1-induced PAI-1 expression, Northern blot, NRK cells; format: cell-based, rat; conditions: 50 μg/ml, TGF-β1 2 to 100 pM
Experimental: (A, B, C, D, E, F) Cells were treated with 50 μg/ml cholesterol (A, B, C, D) and 50 μg/ml LDL (D) at 37° C. for 1 hr or with 1 μM fluvastatin or lovastatin (E) or several concentrations of fluvastatin (F) at 37° C. for 16 hr and then further incubated with increasing concentrations (as indicated) of TGF-β1 (A, B, C, E) or 50 pM TGF-β1 (D,F) for 2 hr. Northern blot analysis of PAI-1 and G3PDH was performed. A representative of a total of three analyses is shown (a). The relative intensities of the transcripts were quantified with a PhosphoImager. The ratio of the relative intensities of PAI-1 and G3PDH transcripts in cells treated without TGF-β1 and cholesterol, LDL or statins on the blot was taken as 1 fold or 100% of PAI-1 expression. The quantitative data from three independent analyses is shown (b). […] (G) Mv1Lu cells stably expressing a luciferase reporter gene driven by the PAI-1 promoter (MLECs-clone 32) were treated with increasing concentrations (as indicated) of cholesterol at 37 EC for 1 hr (a) or with 1 μM lovastatin at 37° C. for 16 hr (b) and then further incubated with 50 pM TGF-β for 7 hr. The luciferase activity in cells treated without cholesterol was taken as 100% (a). […] (H) Cells were incubated with 0.0625 and 0.125 pM TGF-β1 in the presence of increasing concentrations of cholesterol, as indicated. […] The experiments were carried out in triplicate.

TβR-I and TβR-II [2] = experiment: Western blot of TβR-I and TβR-II protein levels, Mv1Lu cells; format: cell-based, mink; conditions: 50 μg/ml
Experimental: Cells grown to near confluence on 12-well cluster dishes were treated with cholesterol or LDL in serum-free DMEM (vol.=0.5 ml/well) at 37° C. for 1 hr. The treated cells were further incubated with 50 or 100 pM TGF-β1 at 37° C. for 30 min (for determining Smad2 phosphorylation) or for 2 hr (for determining TβR-II). Treated cells were lysed and cell lysates were analyzed by 7.5% SDS-PAGE and Western blot analysis using anti-Smad2, anti-P-Smad2, anti-caveolin-1, anti-TβR-I (alk5) or anti-TβR-II antibodies as described previously (30). The antigens on the blots were visualized by using horseradish peroxidase-conjugated anti-rabbit IgG antibody and the ECL system as described (30).
To determine if cholesterol suppresses TGF-β responsiveness by decreasing the ratio of TGF-β1 binding to TβR-II and TβR-I, we first determined the time course of the effect of cholesterol treatment on the ratio of ^125I-TGF-β1 binding to TβR-II and TβR-I in Mv1Lu cells. These cells were treated with 50 μg/ml cholesterol at 37° C. for several time periods. ^125I-TGF-β1 binding to TGF-β receptors was then determined by affinity labeling using the bifunctional cross-linking agent DSS (disuccinimidyl suberate) followed by 7.5% SDS-PAGE and autoradiography or quantified with a PhosphoImager. […] We then performed analysis of the effect of cholesterol treatment on TGF-β1 binding to TβR-I and TβR-II in several cell types. Mv1Lu, BAEC, and NRK cells were treated for 1 hr with increasing concentrations of cholesterol in the presence and absence of 0.2% β-cyclodextrin (β-CD, which forms water-soluble complexes with cholesterol) at 37° C. The binding of TGF-β1 to TβR-I and TβR-II in these cells was then determined by ^125I-TGF-β1 affinity labeling at 0° C.

| Structure (SMILES) | ratio of TβR-II/TβR-I (TβR-I and TβR-II [1]) | suppression of TGF-β1-stimulated PAI-1 expression (PAI-1 expression) | effect on the protein levels of TβR-I and TβR-II (TβR-I and TβR-II [2]; data not shown) | effect on the total amount of TβR-II protein (TβR-I and TβR-II [2]; cholesterol alone) |
| --- | --- | --- | --- | --- |
| CC[C@H](C)C(=O)O[C@H]1C[C@@H](C)C=C2C=C[C@H](C)[C@H](CC[C@@H]3C[C@@H](O)CC(=O)O3)[C@H]21 [lovastatin, reference compound] | 0.18 | – | – | – |
| CC(C)CCC[C@@H](C)[C@H]1CC[C@H]2[C@@H]3CC=C4C[C@@H](O)CC[C@]4(C)[C@H]3CC[C@]12C [cholesterol] | – | 60-65% | did not affect | did not affect |
